Reference: ChEMBL document CHEMBL1773001, “Broad-spectrum antiviral activity including human immunodeficiency and hepatitis C viruses mediated by a novel retinoid thiosemicarbazone derivative” (Eur J Med Chem, 2011)
Active and inactive are the calls of the source. The calls are words filed in the database; no cut-off is given here.

Columns and labels:
[1] = tested on: Hepatitis C virus; experiment: Antiviral activity against Hepatitis C virus infected in human Huh7ET cells assessed as viral RNA level by RT-PCR; format: functional, organism-based; conditions: Huh-7; for Activity: Hepacivirus hominis
[2] = tested on: Hepatitis C virus; experiment: Antiviral activity against Hepatitis C virus infected in human Huh7ET cells assessed as inhibition of viral replication at 20 uM by luciferase reporter gene assay; format: functional, Hepacivirus hominis; conditions: Huh-7
[3] = tested on: Human betaherpesvirus 5; experiment: Antiviral activity against Human cytomegalovirus (strain AD169) infected in 1 hr pretreated human HFF cells assessed as reduction in viral-induced cytopathic effect by neutral red uptake assay; format: functional, organism-based; conditions: Human betaherpesvirus 5, AD169, HFF
[4] = tested on: Vaccinia virus; experiment: Antiviral activity against Vaccinia virus Copenhagen infected in human HFF cells assessed as reduction in viral-induced cytopathic effect by neutral red uptake assay; format: functional, organism-based
[5] = Cytotoxicity against human PBMC infected with Human immunodeficiency virus 1 LAV1 by MTS assay; format: cell-based
[6] = Selectivity index, ratio of CC50 for human PBMC infected with Human immunodeficiency virus 1 LAV1 to EC50 for Human immunodeficiency virus 1 LAV1
[7] = tested on: Human immunodeficiency virus 1; experiment: Antiviral activity against Human immunodeficiency virus 1 LAV1 assessed as reduction in RT activity by [3H]-dTTP incorporation assay; format: functional, organism-based
[8] = Selectivity index, ratio of CC50 for human HFF cells infected with […] to EC50 for Varicella-zoster virus Ellen after 1 hr by plaque reduction assay; format: toxicity, cell-based; conditions: read-out: Selectivity Index
[9] = Selectivity index, ratio of CC50 for human HFF cells infected with Cowpox virus (Brighton Red) to EC50 for Vaccinia virus Copenhagen; format: toxicity, cell-based; conditions: read-out: Selectivity Index
[10] = Cytotoxicity against human HFF cells infected with Vaccinia virus Copenhagen assessed as viable cells by neutral red uptake assay; format: cell-based
[11] = Selectivity index, ratio of CC50 for human Huh7ET cells infected with Hepatitis C virus to EC50 for Hepatitis C virus by RT-PCR; format: toxicity, cell-based, Huh-7; conditions: read-out: Selectivity Index
[12] = tested on: Hepatitis C virus; experiment: Antiviral activity against Hepatitis C virus infected in human Huh7ET cells assessed as inhibition of viral replication by luciferase reporter gene assay; format: functional, organism-based, Hepacivirus hominis; conditions: Huh-7
[13] = tested on: Human alphaherpesvirus 3; experiment: Antiviral activity against Varicella-zoster virus Ellen infected in human HFF cells assessed as inhibition of viral replication after 1 hr by plaque reduction assay; format: functional, organism-based; conditions: Human alphaherpesvirus 3, Ellen
[14] = tested on: Human betaherpesvirus 5; experiment: Antiviral activity against Human cytomegalovirus (strain AD169) infected in human HFF cells assessed inhibition of viral replication after 1 hr by plaque reduction assay; format: functional, organism-based; conditions: Human betaherpesvirus 5, AD169, HFF
[15] = Cytotoxicity against human HFF cells infected with Cowpox virus (Brighton Red) assessed as viable cells by neutral red uptake assay; format: cell-based
[16] = Antiviral activity against Cowpox virus (Brighton Red) infected in human HFF cells assessed as reduction in viral-induced cytopathic effect by neutral red uptake assay; format: functional, cell-based
[17] = Selectivity index, ratio of CC90 for human Huh7ET cells infected with Hepatitis C virus to EC90 for Hepatitis C virus by luciferase reporter gene assay; format: toxicity, cell-based, Huh-7; conditions: read-out: Selectivity Index
[18] = Selectivity index, ratio of CC90 for human Huh7ET cells infected with Hepatitis C virus to EC90 for Hepatitis C virus by RT-PCR; format: toxicity, cell-based, Huh-7; conditions: read-out: Selectivity Index
[19] = Cytotoxicity against human HFF cells infected with Human cytomegalovirus AD169 assessed as viable cells after 1 hr by plaque reduction assay; format: cell-based
[20] = Cytotoxicity against human HFF cells infected with Varicella-zoster virus Ellen assessed as viable cells after 1 hr by plaque reduction assay; format: cell-based
[21] = Selectivity index, ratio of CC50 for human Huh7ET cells infected with Hepatitis C virus to EC50 for Hepatitis C virus by luciferase reporter gene assay; format: toxicity, cell-based, Huh-7; conditions: read-out: Selectivity Index
[22] = Cytotoxicity against human Huh7ET cells infected with Hepatitis C virus assessed as ribosomal RNA level by RT-PCR; format: cell-based, Huh-7
[23] = Selectivity index, ratio of CC50 for human HFF cells infected with […] to EC50 for Human cytomegalovirus AD169 after 1 hr by plaque reduction assay; format: toxicity, cell-based; conditions: read-out: Selectivity Index
[24] = Selectivity index, ratio of CC50 for human HFF cells infected with Cowpox virus (Brighton Red) to EC50 for Cowpox virus (Brighton Red); format: toxicity, cell-based; conditions: read-out: Selectivity Index
[25] = Cytotoxicity against human HFF cells infected with Varicella-zoster virus Ellen assessed as viable cells by neutral red uptake assay; format: cell-based
[26] = Cytotoxicity against human HFF cells infected with Human cytomegalovirus AD169 assessed as viable cells by neutral red uptake assay; format: cell-based
[27] = Selectivity index, ratio of CC50 for human HFF cells infected with […] to EC50 for Varicella-zoster virus Ellen; format: toxicity, cell-based; conditions: read-out: Selectivity Index
[28] = tested on: Human alphaherpesvirus 3; experiment: Antiviral activity against Varicella-zoster virus Ellen infected in 1 hr pretreated human HFF cells assessed as reduction in viral-induced cytopathic effect by neutral red uptake assay; format: functional, organism-based; conditions: Human alphaherpesvirus 3, Ellen
[29] = Selectivity index, ratio of CC50 for human HFF cells infected with […] to EC50 for Human cytomegalovirus AD169; format: toxicity, cell-based; conditions: read-out: Selectivity Index
[30] = Orthopoxvirus vaccinia, Copenhagen, HFF
[31] = Orthopoxvirus vaccinia, Copenhagen, HFF, read-out: EC50

| SMILES | EC50 [3] [µM] | selectivity ratio [9] | CC50 [10] [µM] | selectivity ratio [11] | EC50 [12] [µM] | EC90 [12] [µM] | EC90 [4, 30] [µM] | EC50 [4, 31] [µM] | CC50 [15] [µM] | EC50 [16] [µM] | EC90 [16] [µM] | selectivity ratio [17] | EC50 [1] [µM] | EC90 [1] [µM] | selectivity ratio [21] | CC50 [22] [µM] | CC90 [22] [µM] | selectivity ratio [24] | EC90 [3] [µM] | CC50 [26] [µM] | also measured |
| --- | --- | --- | --- | --- | --- | --- | --- | --- | --- | --- | --- | --- | --- | --- | --- | --- | --- | --- | --- | --- | --- |
| CCCCCCCCCCCCCCS/C(N)=N/N=C/c1ccc(N(C)C)cc1 |  |  |  |  |  |  |  |  |  |  |  |  |  |  |  |  |  |  |  |  | Activity [1]: inactive; inhibition at 20 µM [2]: 31.4% |
| Nc1nc2c(ncn2COC(CO)CO)c(=O)[nH]1 [GANCICLOVIR] | 0.04 |  |  |  |  |  |  |  |  |  |  |  |  |  |  |  |  |  |  |  | EC90 ([4]; Orthopoxvirus vaccinia): inactive; EC50 ([4]; hff): Not Active |
| Cc1cn([C@H]2C[C@H](N=[N+]=[N-])[C@@H](CO)O2)c(=O)[nH]c1=O [ZIDOVUDINE] |  |  |  |  |  |  |  |  |  |  |  |  |  |  |  |  |  |  |  |  | CC50 [5]: > 100 µM; Selectivity Index [6]: >22727; EC50 [7]: 0.0044 µM; EC90 [7]: 0.031 µM |
| CC1=C(/C=C/C(C)=C/C=C/C(C)=C/C=N/[N-]C(=S)[N-]C(=S)[N-]/N=C/C=C(C)/C=C/C=C(C)/C=C/C2=C(C)CCCC2(C)C)C(C)(C)CCC1.O.[Na+].[Na+].[Na+] |  | > 4.9 | 11.8 | 31 | 0.85 | 4 | > 2.4 | > 2.4 | 11.8 | > 2.4 | > 2.4 | > 5 | 0.36 | 1.97 | 15.2 | 11.2 | > 20 | < 4.9 |  |  | selectivity ratio at 1 h [8]: 7.1; EC50 [13]: 4.7 µM; EC90 [13]: 17 µM; CC50 [5]: 28.5 µM; EC50 [14]: 2.4 µM; EC90 [14]: > 4 µM; Selectivity Index [6]: 5.2; selectivity ratio [18]: > 10.2; CC50 at 1 h [19]: 13.6 µM; CC50 at 1 h [20]: 33.3 µM; selectivity ratio at 1 h [23]: 5.7; EC50 [7]: 1.4 µM; EC90 [7]: 6.5 µM |
| CN(C)c1ccc(/C=N/N=c2\[nH]c(-c3ccc(F)cc3)cs2)cc1 | > 300 | > 4.1 | > 300 |  | 6.32 | > 20 | 84.9 | 73.6 | > 300 | 36 | > 300 |  |  |  | > 3.2 |  |  | > 8.3 | > 300 | > 300 | CC50 [25]: > 300 µM; selectivity ratio [27]: > 18.1; Activity [1]: inactive; EC50 [28]: 16.6 µM; EC90 [28]: 26.5 µM |
| NC(=S)N/N=C/c1ccc(OC(F)(F)F)cc1 | > 60 | > 1.2 | > 300 | 18 | 0.08 | 0.5 | > 300 | 250 | > 300 | 54.3 | > 300 | > 40 | 0.08 | 0.61 | 111 | 1.44 | ≥ 5.08 | > 5.5 | > 60 | 290 | selectivity ratio [29]: < 4.8; selectivity ratio [18]: 8.3 |
| NC(=S)N/N=C/c1ccc(Br)cc1F | > 300 | > 2.7 | > 300 | 48.8 | 0.28 | 5.93 | 239 | 110 | > 300 | 115 | 294 | > 3.4 | 0.25 | > 20 | > 71.4 | ≥ 12.2 | > 20 | > 2.6 | > 300 | > 300 | CC50 [25]: > 300 µM; EC50 [28]: > 300 µM; EC90 [28]: > 300 µM |
| Nc1nc(O)c2ncn(COC(CO)CO)c2n1 [GANCICLOVIR] |  |  |  |  |  |  |  |  |  |  |  |  |  |  |  |  |  |  |  | > 100 | selectivity ratio [29]: > 2500 |
| Nc1ccn(C[C@@H](CO)OCP(=O)(O)O)c(=O)n1 [CIDOFOVIR] |  | > 32.3 | > 317 |  |  |  | 20 | 9.8 | > 317 | 6.7 | 18.4 |  |  |  |  |  |  | > 47.3 |  |  |  |
| Nc1nc2c(ncn2COCCO)c(=O)[nH]1 [ACYCLOVIR] |  |  |  |  |  |  |  |  |  |  |  |  |  |  |  |  |  |  |  |  | CC50 [25]: > 100 µM; EC90 ([4]; Orthopoxvirus vaccinia): inactive; EC50 ([4]; hff): Not Active; selectivity ratio [27]: > 90.9; EC50 [28]: 1.1 µM |
